Experimental data reported in paper PMC2765658 (Chemical communications (Cambridge, England), 2009).
Square brackets hold non-standard residues; d marks the D form. Peptide text beside a SMILES is read from it. Aib = CC(C)(N)C(=O)O

Test: Thermal melting followed by CD ellipticity
Assay type: physicochemical
Details: CD ellipticity followed over 20 - 85 °C; 100 μM peptide in 20% TFE/H2O

CC(=O)NCCCC[C@H](NC(=O)[C@@H](NC(C)=O)C(C)C)C(=O)N[C@@H](CC(C)C)C(=O)NC(C)(C)C(=O)N[C@H](C(=O)N[C@@H](CCCCNC(C)=O)C(=O)N[C@@H](CC(C)C)C(N)=O)C(C)C [compound 17, Ac-Val-Lys(Ac)-Leu-Aib-Val-Lys(Ac)-Leu-NH2] (Ac-VK(Ac)L[Aib]VK(Ac)L-NH2)
thermal melting point (Tm): 48 °C
